{
  "source": "patent US6183992A",
  "about": "“Method for mass production of antimicrobial peptide” (Samyang Genex Corporation, priority 1997, dated 2001)",
  "origin": "cited, not measured here",
  "note": "Ends that are not written are not given here.",
  "data": [
    {"conditions": "Table 1, excerpted from Peptide Science, Vol 37, 105-122 (1995)", "values": [
      {"molecule": "CC[C@H](C)[C@H](N)C(=O)N[C@@H](CC(C)C)C(=O)N1CCC[C@H]1C(=O)N[C@@H](Cc1c[nH]c2ccccc12)C(=O)N[C@@H](CCCCN)C(=O)N[C@@H](Cc1c[nH]c2ccccc12)C(=O)N1CCC[C@H]1C(=O)N[C@@H](Cc1c[nH]c2ccccc12)C(=O)N[C@@H](Cc1c[nH]c2ccccc12)C(=O)N1CCC[C@H]1C(=O)N[C@@H](Cc1c[nH]c2ccccc12)C(=O)N[C@@H](CCCNC(=N)N)C(=O)N[C@@H](CCCNC(=N)N)C(N)=O", "note": "[Indolicidin]", "pI": 12.51},
      {"molecule": "CC[C@H](C)[C@H](NC(=O)CN)C(=O)NCC(=O)N[C@@H](C)C(=O)N[C@H](C(=O)N[C@@H](CC(C)C)C(=O)N[C@@H](CCCCN)C(=O)N[C@H](C(=O)N[C@@H](CC(C)C)C(=O)N[C@H](C(=O)N[C@H](C(=O)NCC(=O)N[C@@H](CC(C)C)C(=O)N1CCC[C@H]1C(=O)N[C@@H](C)C(=O)N[C@@H](CC(C)C)C(=O)N[C@H](C(=O)N[C@@H](CO)C(=O)N[C@@H](Cc1c[nH]c2ccccc12)C(=O)N[C@H](C(=O)N[C@@H](CCCCN)C(=O)N[C@@H](CCCNC(=N)N)C(=O)N[C@@H](CCCCN)C(=O)N[C@@H](CCCNC(=N)N)C(=O)N[C@@H](CCC(N)=O)C(=O)N[C@@H](CCC(N)=O)C(N)=O)[C@@H](C)CC)[C@@H](C)CC)[C@@H](C)O)[C@@H](C)O)C(C)C)C(C)C", "note": "[Melittin]", "pI": 12.53},
      {"molecule": "Apidaecin I", "pI": 12.21},
      {"molecule": "Bombinin", "pI": 10.34},
      {"molecule": "Cercropin A [Ceropin A]", "pI": 10.89},
      {"molecule": "GKPRPYSPRPTSHPRPIRV [Drosocin]", "pI": 12.22},
      {"molecule": "HNP-I [HNP1]", "pI": 8.28},
      {"molecule": "Magainin (MSI-344)", "pI": 11.41},
      {"molecule": "Tachyplesin I", "pI": 10.01}
    ]}
  ]
}
